# According to ChEMBL document CHEMBL3286199, “Synthesis, in vitro antimicrobial and cytotoxic activities of novel pyrimidine-benzimidazol combinations” (Bioorg Med Chem Lett, 2014):
# System: Staphylococcus aureus
# Test: Antimicrobial activity against Staphylococcus aureus after 18 to 24 hrs by broth microdilution method
# Assay type: functional
# Details: not given
row,SMILES,MIC
1,COc1ccccc1Nc1cc(C)nc(SCc2nc3ccccc3[nH]2)n1,> 128 µg/mL
2,Cc1cc(Nc2ccc(F)cc2)nc(SCc2nc3ccccc3[nH]2)n1,32 µg/mL
3,Cc1cc(Nc2ccc(Cl)cc2)nc(SCc2nc3ccccc3[nH]2)n1,8 µg/mL
4,Cc1cc(Nc2ccc(Br)cc2)nc(SCc2nc3ccccc3[nH]2)n1,16 µg/mL
5,Cc1ccc(Nc2cc(C)nc(SCc3nc4ccccc4[nH]3)n2)cc1,32 µg/mL
6,COc1ccc(Nc2cc(C)nc(SCc3nc4ccccc4[nH]3)n2)cc1,64 µg/mL
7,Cc1cc(Nc2cccc(C(F)(F)F)c2)nc(SCc2nc3ccccc3[nH]2)n1,> 128 µg/mL
8,Cc1cc(NCCO)nc(SCc2nc3ccccc3[nH]2)n1,> 128 µg/mL
9,Cc1cc(N(CCO)CCO)nc(SCc2nc3ccccc3[nH]2)n1,> 128 µg/mL

# System: Bacillus subtilis
# Test: Antimicrobial activity against Bacillus subtilis after 18 to 24 hrs by broth microdilution method
# Assay type: functional
# Details: not given
row,SMILES,MIC
1,COc1ccccc1Nc1cc(C)nc(SCc2nc3ccccc3[nH]2)n1,32 µg/mL
2,Cc1cc(Nc2ccc(F)cc2)nc(SCc2nc3ccccc3[nH]2)n1,64 µg/mL
3,Cc1cc(Nc2ccc(Cl)cc2)nc(SCc2nc3ccccc3[nH]2)n1,128 µg/mL
4,Cc1cc(Nc2ccc(Br)cc2)nc(SCc2nc3ccccc3[nH]2)n1,128 µg/mL
5,Cc1ccc(Nc2cc(C)nc(SCc3nc4ccccc4[nH]3)n2)cc1,64 µg/mL
6,COc1ccc(Nc2cc(C)nc(SCc3nc4ccccc4[nH]3)n2)cc1,32 µg/mL
7,Cc1cc(Nc2cccc(C(F)(F)F)c2)nc(SCc2nc3ccccc3[nH]2)n1,> 128 µg/mL
8,Cc1cc(NCCO)nc(SCc2nc3ccccc3[nH]2)n1,> 128 µg/mL
9,Cc1cc(N(CCO)CCO)nc(SCc2nc3ccccc3[nH]2)n1,> 128 µg/mL

# System: Escherichia coli
# Test: Antimicrobial activity against Escherichia coli after 18 to 24 hrs by broth microdilution method
# Assay type: functional
# Details: not given
row,SMILES,MIC
1,COc1ccccc1Nc1cc(C)nc(SCc2nc3ccccc3[nH]2)n1,32 µg/mL
2,Cc1cc(Nc2ccc(F)cc2)nc(SCc2nc3ccccc3[nH]2)n1,64 µg/mL
3,Cc1cc(Nc2ccc(Cl)cc2)nc(SCc2nc3ccccc3[nH]2)n1,128 µg/mL
4,Cc1cc(Nc2ccc(Br)cc2)nc(SCc2nc3ccccc3[nH]2)n1,128 µg/mL
5,Cc1ccc(Nc2cc(C)nc(SCc3nc4ccccc4[nH]3)n2)cc1,32 µg/mL
6,COc1ccc(Nc2cc(C)nc(SCc3nc4ccccc4[nH]3)n2)cc1,128 µg/mL
7,Cc1cc(Nc2cccc(C(F)(F)F)c2)nc(SCc2nc3ccccc3[nH]2)n1,> 128 µg/mL
8,Cc1cc(NCCO)nc(SCc2nc3ccccc3[nH]2)n1,64 µg/mL
9,Cc1cc(N(CCO)CCO)nc(SCc2nc3ccccc3[nH]2)n1,64 µg/mL

# System: Stenotrophomonas maltophilia
# Test: Antimicrobial activity against Stenotrophomonas maltophilia after 18 to 24 hrs by broth microdilution method
# Assay type: functional
# Details: not given
row,SMILES,MIC
1,COc1ccccc1Nc1cc(C)nc(SCc2nc3ccccc3[nH]2)n1,8 µg/mL
2,Cc1cc(Nc2ccc(F)cc2)nc(SCc2nc3ccccc3[nH]2)n1,32 µg/mL
3,Cc1cc(Nc2ccc(Cl)cc2)nc(SCc2nc3ccccc3[nH]2)n1,2 µg/mL
4,Cc1cc(Nc2ccc(Br)cc2)nc(SCc2nc3ccccc3[nH]2)n1,4 µg/mL
5,Cc1ccc(Nc2cc(C)nc(SCc3nc4ccccc4[nH]3)n2)cc1,8 µg/mL
6,COc1ccc(Nc2cc(C)nc(SCc3nc4ccccc4[nH]3)n2)cc1,16 µg/mL
7,Cc1cc(Nc2cccc(C(F)(F)F)c2)nc(SCc2nc3ccccc3[nH]2)n1,8 µg/mL
8,Cc1cc(NCCO)nc(SCc2nc3ccccc3[nH]2)n1,64 µg/mL
9,Cc1cc(N(CCO)CCO)nc(SCc2nc3ccccc3[nH]2)n1,128 µg/mL

# System: Candida albicans
# Test: Antimicrobial activity against Candida albicans after 48 hrs by broth microdilution method
# Assay type: functional
# Details: not given
row,SMILES,MIC
1,COc1ccccc1Nc1cc(C)nc(SCc2nc3ccccc3[nH]2)n1,128 µg/mL
2,Cc1cc(Nc2ccc(F)cc2)nc(SCc2nc3ccccc3[nH]2)n1,8 µg/mL
3,Cc1cc(Nc2ccc(Cl)cc2)nc(SCc2nc3ccccc3[nH]2)n1,64 µg/mL
4,Cc1cc(Nc2ccc(Br)cc2)nc(SCc2nc3ccccc3[nH]2)n1,8 µg/mL
5,Cc1ccc(Nc2cc(C)nc(SCc3nc4ccccc4[nH]3)n2)cc1,64 µg/mL
6,COc1ccc(Nc2cc(C)nc(SCc3nc4ccccc4[nH]3)n2)cc1,64 µg/mL
7,Cc1cc(Nc2cccc(C(F)(F)F)c2)nc(SCc2nc3ccccc3[nH]2)n1,> 128 µg/mL
8,Cc1cc(NCCO)nc(SCc2nc3ccccc3[nH]2)n1,> 128 µg/mL
9,Cc1cc(N(CCO)CCO)nc(SCc2nc3ccccc3[nH]2)n1,> 128 µg/mL

# System: MGC-803
# Test: Cytotoxicity against human MGC803 cells after 72 hrs by MTT assay
# Assay type: functional, cell-based
# Details: MGC-803, 72 h
row,SMILES,IC50
1,COc1ccccc1Nc1cc(C)nc(SCc2nc3ccccc3[nH]2)n1,56.2 µM
2,Cc1cc(Nc2ccc(F)cc2)nc(SCc2nc3ccccc3[nH]2)n1,5.77 µM
3,Cc1cc(Nc2ccc(Cl)cc2)nc(SCc2nc3ccccc3[nH]2)n1,28.2 µM
4,Cc1cc(Nc2ccc(Br)cc2)nc(SCc2nc3ccccc3[nH]2)n1,26.8 µM
5,Cc1ccc(Nc2cc(C)nc(SCc3nc4ccccc4[nH]3)n2)cc1,7.39 µM
6,COc1ccc(Nc2cc(C)nc(SCc3nc4ccccc4[nH]3)n2)cc1,51.1 µM
7,Cc1cc(Nc2cccc(C(F)(F)F)c2)nc(SCc2nc3ccccc3[nH]2)n1,> 100 µM
8,Cc1cc(NCCO)nc(SCc2nc3ccccc3[nH]2)n1,> 100 µM
9,Cc1cc(N(CCO)CCO)nc(SCc2nc3ccccc3[nH]2)n1,> 100 µM

# System: MCF7
# Test: Cytotoxicity against human MCF7 cells after 72 hrs by MTT assay
# Assay type: functional, cell-based
# Details: MCF7, 72 h
row,SMILES,IC50
1,COc1ccccc1Nc1cc(C)nc(SCc2nc3ccccc3[nH]2)n1,> 100 µM
2,Cc1cc(Nc2ccc(F)cc2)nc(SCc2nc3ccccc3[nH]2)n1,42.2 µM
3,Cc1cc(Nc2ccc(Cl)cc2)nc(SCc2nc3ccccc3[nH]2)n1,33.6 µM
4,Cc1cc(Nc2ccc(Br)cc2)nc(SCc2nc3ccccc3[nH]2)n1,38 µM
5,Cc1ccc(Nc2cc(C)nc(SCc3nc4ccccc4[nH]3)n2)cc1,56.5 µM
6,COc1ccc(Nc2cc(C)nc(SCc3nc4ccccc4[nH]3)n2)cc1,61.1 µM
7,Cc1cc(Nc2cccc(C(F)(F)F)c2)nc(SCc2nc3ccccc3[nH]2)n1,> 100 µM
8,Cc1cc(NCCO)nc(SCc2nc3ccccc3[nH]2)n1,> 100 µM
9,Cc1cc(N(CCO)CCO)nc(SCc2nc3ccccc3[nH]2)n1,> 100 µM

# System: not listed separately
# Test: Cytotoxicity against human EC109 cells after 72 hrs by MTT assay
# Assay type: functional, cell-based
# Details: ECa-109, 72 h
row,SMILES,IC50
1,COc1ccccc1Nc1cc(C)nc(SCc2nc3ccccc3[nH]2)n1,34.4 µM
2,Cc1cc(Nc2ccc(F)cc2)nc(SCc2nc3ccccc3[nH]2)n1,69.5 µM
3,Cc1cc(Nc2ccc(Cl)cc2)nc(SCc2nc3ccccc3[nH]2)n1,20.4 µM
4,Cc1cc(Nc2ccc(Br)cc2)nc(SCc2nc3ccccc3[nH]2)n1,42.9 µM
5,Cc1ccc(Nc2cc(C)nc(SCc3nc4ccccc4[nH]3)n2)cc1,57.3 µM
6,COc1ccc(Nc2cc(C)nc(SCc3nc4ccccc4[nH]3)n2)cc1,69.8 µM
7,Cc1cc(Nc2cccc(C(F)(F)F)c2)nc(SCc2nc3ccccc3[nH]2)n1,> 100 µM
8,Cc1cc(NCCO)nc(SCc2nc3ccccc3[nH]2)n1,> 100 µM
9,Cc1cc(N(CCO)CCO)nc(SCc2nc3ccccc3[nH]2)n1,> 100 µM

# System: PC-3
# Test: Cytotoxicity against human PC3 cells after 72 hrs by MTT assay
# Assay type: functional, cell-based
# Details: PC-3, 72 h
row,SMILES,IC50
1,COc1ccccc1Nc1cc(C)nc(SCc2nc3ccccc3[nH]2)n1,70.8 µM
2,Cc1cc(Nc2ccc(F)cc2)nc(SCc2nc3ccccc3[nH]2)n1,56.2 µM
3,Cc1cc(Nc2ccc(Cl)cc2)nc(SCc2nc3ccccc3[nH]2)n1,36 µM
4,Cc1cc(Nc2ccc(Br)cc2)nc(SCc2nc3ccccc3[nH]2)n1,37.1 µM
5,Cc1ccc(Nc2cc(C)nc(SCc3nc4ccccc4[nH]3)n2)cc1,56 µM
6,COc1ccc(Nc2cc(C)nc(SCc3nc4ccccc4[nH]3)n2)cc1,67.4 µM
7,Cc1cc(Nc2cccc(C(F)(F)F)c2)nc(SCc2nc3ccccc3[nH]2)n1,> 100 µM
8,Cc1cc(NCCO)nc(SCc2nc3ccccc3[nH]2)n1,> 100 µM
9,Cc1cc(N(CCO)CCO)nc(SCc2nc3ccccc3[nH]2)n1,> 100 µM
